Source: PubChem BioAssay (NCI)
“And” between values parts separate entries of the source, which are not always exact repeats. Identical values can stand only once.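 Assay format: 96-well plates, 48-hour exposure. GI50 = concentration required for 50% inhibition of growth. The concentration for full growth arrest is given as TGI.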

How the values were obtained:
Assay in all cases: inhibition of tumour cell growth, NCI panel, 48 h
DLD-1 colon = system: DLD-1 colon
DMS 114 small cell lung = system: DMS 114 small cell lung
DMS 273 small cell lung = system: DMS 273 small cell lung
RXF-631 renal = system: RXF-631 renal
MDA-MB-435 = system: MDA-MB-435
T-47D breast = system: T-47D breast
MDA-N = system: MDA-N
MDA-MB-231 breast = system: MDA-MB-231 breast
NCI/ADR-RES ovarian = system: NCI/ADR-RES ovarian

Cc1c(Cl)ccc2c1NC(=O)C2(O)C1Cc2ccccc2C1=O (centres undefined)
TGI (DLD-1 colon): > 100 µM | TGI (DMS 114 small cell lung): > 100 µM

C=CCN(N=O)C(=O)N(CCC)CCCCC(NC(C)=O)C(=O)NCc1ccccc1 (centres undefined)
TGI (DMS 273 small cell lung): > 100 µM | TGI (RXF-631 renal): > 100 µM | TGI (DMS 114 small cell lung): > 100 µM

CSC(=S)NNC(=O)c1ccncc1
TGI (DLD-1 colon): 34.6 µM | TGI (DMS 273 small cell lung): 46.1 µM | TGI (RXF-631 renal): > 100 µM | TGI (DMS 114 small cell lung): 28.6 µM

CN=S(=O)(C[C@]1(O)CC2OC1C1OC(C)(C)OC21)c1ccccc1 (some centres undefined)
TGI (DMS 273 small cell lung): > 100 µM | TGI (DMS 114 small cell lung): > 100 µM

CC1OC(O)CC(OC(=O)c2ccccc2)C1OC(=O)c1ccccc1 (centres undefined)
TGI (DLD-1 colon): 28.4 µM | TGI (DMS 273 small cell lung): 29.5 µM

COc1ccc(OC)c2cc(C3(C)SCCCS3)ccc12
TGI (DLD-1 colon): > 100 µM | TGI (DMS 273 small cell lung): > 100 µM | TGI (DMS 114 small cell lung): > 100 µM

CCOC(=O)c1cc2ncccc2c2ccccc12
TGI (MDA-MB-435): > 100 µM | TGI (T-47D breast): > 100 µM | TGI (MDA-N): > 100 µM | TGI (MDA-MB-231 breast): > 100 µM | TGI (NCI/ADR-RES ovarian): > 100 µM

O=C(CC(=O)C(F)(F)F)c1csc2ccccc12
TGI (DMS 273 small cell lung): > 100 µM | TGI (DMS 114 small cell lung): > 100 µM

Nc1nc(N)c(-c2ccc(Cl)cc2)c(CCC(=O)Nc2cccc(C(F)(F)F)c2)n1
TGI (DLD-1 colon): > 100 µM | TGI (DMS 273 small cell lung): > 100 µM | TGI (RXF-631 renal): > 100 µM | TGI (DMS 114 small cell lung): > 100 µM

Clc1ccc2nc(CCSCCc3nc4ccc(Cl)cc4[nH]3)[nH]c2c1
TGI (DLD-1 colon): 33.8 µM | TGI (DMS 273 small cell lung): 29 µM | TGI (RXF-631 renal): 21.6 µM

COc1ccc2c(c1)[n+]([O-])c(-c1nc3ccccc3s1)c(N)[n+]2[O-]
TGI (DLD-1 colon): > 100 µM | TGI (DMS 273 small cell lung): > 100 µM | TGI (RXF-631 renal): > 100 µM

O=C1c2ccccc2C(=O)c2nc(-c3ccccc3)c(-c3ccccc3)nc21
TGI (DLD-1 colon): > 100 µM | TGI (DMS 273 small cell lung): > 100 µM | TGI (RXF-631 renal): > 100 µM | TGI (DMS 114 small cell lung): > 100 µM

O=C(CC1(O)C(=O)Nc2c(Cl)cc(Cl)cc21)c1ccc2ccccc2c1 (centres undefined)
TGI (DLD-1 colon): 26.7 µM | TGI (DMS 273 small cell lung): 15.2 µM | TGI (RXF-631 renal): 20.6 µM | TGI (DMS 114 small cell lung): 17.8 µM

CCOC(=O)C1=C(C)N(NC(=O)c2ccccc2)C2(O)CCCC12C(=O)OCC (centres undefined)
TGI (DMS 273 small cell lung): > 100 µM | TGI (RXF-631 renal): > 100 µM | TGI (DMS 114 small cell lung): > 100 µM

O=C(C=Nc1ccccc1C(=O)[O-])c1cccs1.O=C(C=Nc1ccccc1C(=O)[O-])c1cccs1.[Cu+2]
TGI (DLD-1 colon): > 10 µM

Nc1nccc(Nc2ccc(S(N)(=O)=O)cc2)n1
TGI (MDA-MB-435): > 100 µM | TGI (T-47D breast): > 100 µM | TGI (MDA-N): > 100 µM | TGI (MDA-MB-231 breast): > 100 µM | TGI (NCI/ADR-RES ovarian): > 100 µM

CC(C)(O)[C@H]1[C@@H]2OC(=O)[C@H]1[C@]1(O)C[C@H]3OC34C(=O)O[C@H]2[C@@]41C (some centres undefined) (tested in a mixture with another compound)
TGI (MDA-MB-435): > 100 µM | TGI (T-47D breast): > 100 µM | TGI (MDA-N): > 100 µM | TGI (MDA-MB-231 breast): > 100 µM

O=C(/C=C/c1ccccc1)CCC1C(=O)NC(=O)NC1=O
TGI (MDA-MB-435): > 100 µM | TGI (T-47D breast): > 100 µM | TGI (MDA-N): > 100 µM | TGI (MDA-MB-231 breast): > 100 µM | TGI (NCI/ADR-RES ovarian): > 100 µM

Cc1c(CCl)c(=O)oc2c(C)c3occ(CCl)c(=O)c3cc12
TGI (RXF-631 renal): 31.1 µM | TGI (DMS 114 small cell lung): 41.8 µM

O=C(O)CCC1CCC(c2cc(F)ccc2F)(S(=O)(=O)c2ccc(Cl)cc2)CC1 (centres undefined)
GI50 (MDA-MB-435): 14.5 µM and 26.5 µM | TGI (MDA-MB-435): 31.2 µM and > 92.7 µM | GI50 (T-47D breast): 28.6 µM and > 100 µM | TGI (T-47D breast): > 100 µM | GI50 (MDA-MB-231 breast): 30.4 µM and > 100 µM | TGI (MDA-MB-231 breast): > 100 µM | GI50 (NCI/ADR-RES ovarian): 25.8 µM and > 74.3 µM | TGI (NCI/ADR-RES ovarian): 99.7 µM and > 100 µM

COC(=O)N/N=C(\C)C(CN1CCOCC1)C(c1ccccc1)c1cc2ccccc2oc1=O (centres undefined)
TGI (MDA-MB-435): > 100 µM | TGI (T-47D breast): > 100 µM | TGI (MDA-MB-231 breast): > 100 µM | TGI (NCI/ADR-RES ovarian): > 100 µM

CCCCCCCCCC(=O)OCC1OC(n2cc(F)c(=O)[nH]c2=O)C(N)C(OC(=O)CCCCCCCCC)C1O (centres undefined)
TGI (DMS 273 small cell lung): 38 µM | TGI (DMS 114 small cell lung): 29.6 µM

CNC(=O)CN(CC(N)=O)C(=O)NC
TGI (DLD-1 colon): > 100 µM | TGI (DMS 273 small cell lung): > 100 µM | TGI (RXF-631 renal): > 100 µM

CC1(C)C2CCC13C(=O)C1OC3(C2)C2C(=O)c3c(O)ccc(O)c3C(=O)C12 (centres undefined)
GI50 (MDA-MB-435): 34.9 µM | TGI (MDA-MB-435): > 74.5 µM | GI50 (T-47D breast): 36.7 µM | TGI (T-47D breast): > 64.8 µM | GI50 (MDA-MB-231 breast): 44.2 µM | TGI (MDA-MB-231 breast): > 70.3 µM | GI50 (NCI/ADR-RES ovarian): 17.5 µM | TGI (NCI/ADR-RES ovarian): 59.1 µM

CC(=O)Nc1ccc(/C=C/C(=O)c2sc(C(N)=S)nc2C)cc1
TGI (DLD-1 colon): > 100 µM | TGI (DMS 273 small cell lung): > 100 µM | TGI (DMS 114 small cell lung): > 100 µM

NC(=O)Oc1cc(OC(N)=O)cc(N(CCCl)CCCl)c1
GI50 (MDA-MB-435): 11.4 µM | TGI (MDA-MB-435): 28.9 µM | GI50 (T-47D breast): 7.78 µM | TGI (T-47D breast): > 100 µM | GI50 (MDA-MB-231 breast): 25.9 µM | TGI (MDA-MB-231 breast): > 100 µM | GI50 (NCI/ADR-RES ovarian): 5.45 µM | TGI (NCI/ADR-RES ovarian): > 100 µM

CN1CCN(Cc2ccc(NC(=O)c3cncc(C#Cc4c(N)ncc5cc(F)ccc45)c3)cc2C(F)(F)F)CC1
GI50 (MDA-MB-435): 0.532 µM | TGI (MDA-MB-435): 1.15 µM | GI50 (T-47D breast): 6.57 µM | TGI (T-47D breast): 20.2 µM | GI50 (MDA-MB-231 breast): 0.477 µM | TGI (MDA-MB-231 breast): 1.13 µM | GI50 (NCI/ADR-RES ovarian): 1.03 µM | TGI (NCI/ADR-RES ovarian): 2.46 µM

O=S1c2ccc(Cl)cc2CC(SSC2Cc3cc(Cl)ccc3S(=O)c3ccccc32)c2ccccc21 (centres undefined)
TGI (DLD-1 colon): > 100 µM | TGI (DMS 273 small cell lung): > 100 µM | TGI (RXF-631 renal): > 100 µM | TGI (DMS 114 small cell lung): > 100 µM

O=C1/C(=C/c2ccc(Cl)cc2)CN(C(=O)C(Cl)Cl)C/C1=C\c1ccc(Cl)cc1
GI50 (MDA-MB-435): 0.194 µM | TGI (MDA-MB-435): 0.396 µM | GI50 (T-47D breast): 0.297 µM | TGI (T-47D breast): 1.62 µM | GI50 (MDA-MB-231 breast): 0.27 µM | TGI (MDA-MB-231 breast): 0.961 µM | GI50 (NCI/ADR-RES ovarian): 0.358 µM | TGI (NCI/ADR-RES ovarian): > 32.9 µM

CCCC(=O)NNc1[nH]c(-c2ccc(OC)cc2)cc1C(=O)OCC
GI50 (MDA-MB-435): 15.6 µM | TGI (MDA-MB-435): 31.6 µM | GI50 (T-47D breast): 15.3 µM | TGI (T-47D breast): 48.6 µM | GI50 (MDA-MB-231 breast): 16.6 µM | TGI (MDA-MB-231 breast): 30.2 µM | GI50 (NCI/ADR-RES ovarian): 19.2 µM | TGI (NCI/ADR-RES ovarian): 47.4 µM

Cc1ccc(NC(=O)c2ccnc(N3CCCC3)c2)cc1-c1ccc(C(=O)NCC2CC2)cc1
GI50 (MDA-MB-435): > 25 µM | TGI (MDA-MB-435): > 25 µM | GI50 (T-47D breast): > 13.5 µM | TGI (T-47D breast): > 25 µM | GI50 (MDA-MB-231 breast): 10 µM | TGI (MDA-MB-231 breast): > 25 µM | GI50 (NCI/ADR-RES ovarian): > 25 µM | TGI (NCI/ADR-RES ovarian): > 25 µM

Cc1ccc(S(=O)(=O)N/N=C(\C(=O)Nc2cccc([N+](=O)[O-])c2)c2nc3ccc([N+](=O)[O-])cc3[nH]c2=O)cc1
TGI (DLD-1 colon): > 100 µM | TGI (DMS 114 small cell lung): 99.1 µM

O=C(NCC#CCO)C(F)(F)F
TGI (DLD-1 colon): > 100 µM | TGI (DMS 273 small cell lung): > 100 µM | TGI (RXF-631 renal): > 100 µM | TGI (DMS 114 small cell lung): > 100 µM
